Data set [1] relates to GS cells. The experiment in a line: Detachment of GS cells from feeder cells. Format: cell-based, mouse. The note with it: 50 μM, 5 days, vs vehicle. How it is done:
(§1) FIG. 7A-F. Inhibition of SHP2 blocks GDNF and FGF signaling causes SSCs to detach from their niche decreases the number of SSCs in culture and disrupts spermatogenesis in vivo. […] Western blot analysis of p-ERK and ERK levels after the treatments is shown. […] The percentage of cells detached from feeder cells was determined (n=3, *=p<0.05). C) The epididymis of control and GCSHP2KO mice were stained with periodic acid Schiffs-hematoxylin. Immature germ cells in GCSHP2KO epididymis are identified with arrows. D) GS cells treated with vehicle or NSC (50 μM) as in B were isolated from feeder cells, dispersed and counted. E) Clumps of GS cells (white arrows) and feeder cells (yellow arrows) treated as in D were assayed for live (green) and dead (red) cells.
Preparation of GS cell cultures from 6-day-old DBA/2 mice was performed as described previously (Oatley and Brinster, 2006). Briefly, a testicular cell suspension was isolated by enzymatic digestion with DNase and trypsin and filtered through a 40 uM mesh to remove cell clumps. Germ cells were then enriched from these suspensions through a 30% percoll gradient. The germ cell suspensions were subjected to magnetic activated cell sorting (MACS) to select Thy1+ cells to enrich for SSCs. […]

Data set [2] relates to spermatogenesis in testes of adult mice. The experiment in a line: One injection into the testes of adult mice, sperm production. The data set is classed as in vivo, mouse.
A further data set relates to spleen tissue. In words: Spleen tissue after injection into testes. The data set is classed as in vivo, mouse. As to conditions: same animal as FIG. 11 (10 mg/kg into testes), 15 days after injection.
The test system of data set [3] is FGF and GDNF-mediated phosphorylation of ERK. In words: FGF/GDNF-stimulated ERK phosphorylation in GS cell cultures (western blot). The note with it: FGF 20 ng/ml or GDNF 20 ng/ml, pretreatment with 50 μM. Format: cell-based, mouse. How it is done:
as §1
Isolation of THY1+ germ cells from 6-day-old DBA/2 mice was performed as described previously to produce GS cell cultures (Oatley and Brinster, 2006) (more details in Supplemental Experimental Procedures). […] SSCs were detached from feeders and FGF or GDNF were added for 10 min. Detached SSCs were then pelleted (600×g, 7 min) and the pellets were lysed in Laemmli sample buffer.
WCE boiled in Laemmli sample buffer were fractionated by 10% SDS-PAGE and transferred to Immobilon-P, PVDF membranes 90 (Millipore Corp., Bedford, Mass.). […]
On the technique in general: Immunoblotting shows a protein as a band on a membrane.

The test system of data set [4] is spermatogenesis in adult mice. The experiment in a line: ip injection into adult mice, testis sections stained with PAS-H. The data set is classed as in vivo, mouse. The note with it: 15 days later. How it is done: as §1, with “cells. […] Furthermore, the populations of spermatocytes and spermatids were reduced.” for “cells.”
Data set [5] concerns GS cells. The experiment in a line: GS cell number after isolation from feeder cells, dispersed and counted. The data set is classed as cell-based, mouse. The note with it: 50 μM, 5 day treatment, vs vehicle. How it is done:
as §1
All immunostained cells and tubules from an entire testis section were counted and the number of stained cells per tubule was determined. GS cell viability was determined using the LIVE/DEAD Viability Assay kit for mammalian cells (Life Technologies)
Preparation of GS cell cultures from 6-day-old DBA/2 mice was performed as described previously (Oatley and Brinster, 2006). Briefly, a testicular cell suspension was isolated by enzymatic digestion with DNase and trypsin and filtered through a 40 uM mesh to remove cell clumps. Germ cells were then enriched from these suspensions through a 30% percoll gradient. […]

Where [6] appears, read: 5 mg/kg ip daily for 3 or 7 days.

Each structure is given as a SMILES string.

For `O=S(=O)(O)c1ccc2cc(/N=N/c3cc(S(=O)(=O)O)c4cccnc4c3O)ccc2c1` [NSC-87877, 8-Hydroxy-7-[(6-sulfo-2-naphthyl)azo]-5-quinolinesulfonic acid], in the data set on GS cells [1], the “increase in the number of GS cells detached from the feeder cells” value is on record as 3 fold. Moreover, the “sperm production, long term” value in data set [2] (one injection of 10 mg/kg into the testes, adult mice, 70 days) is given as “loss of sperm production in some regions of the testes”. In addition, the “spermatogenesis (sperm production)” value in data set [2] (one injection of 40 mg/kg into the testes, adult mice, 15 days later) is given as “sufficient to disrupt spermatogenesis”. Besides, the fertility entry in data set [2] (single dose of 10 mg/kg or 40 mg/kg, mouse) was “effective in decreasing fertility”. Also, in the data set with spleen tissue, the “damage of spleen tissue” value was “not damaged”. The “FGF and GDNF-mediated phosphorylation (activation) of ERK” value in data set [3] is “decreased FGF and GDNF mediated activation of ERK”. The “FGF and GDNF-mediated phosphorylation (activation) of ERK” value in data set [3] (listed as NSC-878777) is “inhibited the FGF and GDNF-mediated phosphorylation of ERK”. In data set [4] (setting [6]), the “further disruption of spermatogenesis (elongated spermatids)” value is “mis-localization and mis-orientation of elongated spermatids”; the “populations of spermatocytes and spermatids” value is given as “reduced”; the “spermatogonia in tubules at the periphery of the testes” value was “absence of spermatogonia”. Further, in data set [4] (5 mg/kg ip daily for 7 days), the “germ cells in some tubule cross sections” value is “nearly all germ cells were absent”. Also, the “reduction of the number of GS cells” value with GS cells [5] is on record as 22%.

The values above are taken from patent US20160129021A1, “STERILIZATION METHOD” (UNIVERSITY OF PITTSBURGH - OF THE COMMONWEALTH SYSTEM OF …, priority 2013, published 2016).
